Measured values published in ChEMBL document CHEMBL2311417, “Synthesis and biological evaluation of N-aryl-7-methoxybenzo[b]furo[3,2-d]pyrimidin-4-amines and their N-arylbenzo[b]thieno[3,2-d]pyrimidin-4-amine analogues as dual inhibitors of CLK1 and DYRK1A kinases” (Eur J Med Chem, 2013).
pIC50: −log10 of the molar value.

How the values were obtained:
[1] = target: Dual specificity tyrosine-phosphorylation-regulated kinase 1A (Rattus norvegicus, UniProt Q63470); assay: Inhibition of rat recombinant DYRK1A-GST expressed in Escherichia coli using KKISGRLSPIMTEQ as substrate
[2] = Inhibition of porcine brain CK1delta/epsilon using RRKHAAIGpSAYSITA as substrate; design: species or system Sus scrofa
[3] = target: Glycogen synthase kinase-3 (Sus scrofa, UniProt B2LUN4+I6LNT8); assay: Inhibition of porcine brain GSK3alpha/beta using GS-1 as substrate
[4] = target: Cyclin-dependent kinase 5/CDK5 activator 1 (Homo sapiens, UniProt Q00535); assay: Inhibition of human recombinant CDK5/p25 after 30 mins by scintillation counting; format: protein-complex assay
Cyclin-dependent kinase 5/CDK5 activator 1, sequence (Q00535 whole entry): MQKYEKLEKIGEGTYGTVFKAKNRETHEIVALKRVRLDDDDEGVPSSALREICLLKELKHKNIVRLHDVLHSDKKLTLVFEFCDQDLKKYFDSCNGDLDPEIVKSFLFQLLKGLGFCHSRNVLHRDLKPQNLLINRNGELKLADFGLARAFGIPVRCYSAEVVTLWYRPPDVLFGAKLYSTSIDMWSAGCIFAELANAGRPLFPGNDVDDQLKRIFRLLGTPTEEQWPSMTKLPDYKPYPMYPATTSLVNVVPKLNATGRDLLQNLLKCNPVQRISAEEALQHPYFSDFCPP
Cyclin-dependent kinase 5/CDK5 activator 1, sequence (Q15078 whole entry, further chain): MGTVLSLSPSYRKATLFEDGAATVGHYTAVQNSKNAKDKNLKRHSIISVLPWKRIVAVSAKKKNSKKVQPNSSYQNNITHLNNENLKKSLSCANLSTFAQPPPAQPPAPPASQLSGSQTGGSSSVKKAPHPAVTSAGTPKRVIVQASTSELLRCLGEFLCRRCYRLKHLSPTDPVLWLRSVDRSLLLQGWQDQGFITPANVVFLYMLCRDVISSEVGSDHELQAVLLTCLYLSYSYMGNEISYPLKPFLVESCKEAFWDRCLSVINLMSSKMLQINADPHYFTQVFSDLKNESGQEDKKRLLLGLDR

[5] = target: Dual specificity protein kinase CLK1 (Homo sapiens, UniProt P49759)
Dual specificity protein kinase CLK1, sequence (P49759 whole entry): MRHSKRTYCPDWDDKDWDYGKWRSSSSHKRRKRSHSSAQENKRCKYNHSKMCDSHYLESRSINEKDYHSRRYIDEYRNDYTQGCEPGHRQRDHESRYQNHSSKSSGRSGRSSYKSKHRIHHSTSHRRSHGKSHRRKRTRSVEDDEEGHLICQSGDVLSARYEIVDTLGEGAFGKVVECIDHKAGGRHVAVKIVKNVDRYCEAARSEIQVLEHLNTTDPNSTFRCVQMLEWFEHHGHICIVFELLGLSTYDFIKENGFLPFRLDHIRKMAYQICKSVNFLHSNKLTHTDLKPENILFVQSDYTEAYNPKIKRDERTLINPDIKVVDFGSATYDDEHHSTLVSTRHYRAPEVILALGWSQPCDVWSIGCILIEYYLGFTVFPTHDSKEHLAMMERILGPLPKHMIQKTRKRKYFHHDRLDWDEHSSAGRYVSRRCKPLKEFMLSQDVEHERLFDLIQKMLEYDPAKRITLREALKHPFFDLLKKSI

SMILES | pIC50 [1] | pIC50 [2] | IC50 [3] [µM] | pIC50 [4] | pIC50 [5]
COc1ccc2c(c1)sc1c(Nc3ccc(N(C)C)cc3)ncnc12 | 6.18 | < 5.00 | > 10 | < 5.00 | 6.10
COc1ccc2c(c1)oc1c(Nc3ccc4c(c3)OCCO4)ncnc12 | < 5.00 | < 5.00 | > 10 | < 5.00 | < 5.00
COc1ccc2c(c1)oc1c(Nc3ccc(F)cc3)ncnc12 | < 5.00 | < 5.00 | > 10 | < 5.00 | < 5.00
COc1ccc2c(c1)sc1c(Nc3ccccc3)ncnc12 | < 5.00 | < 5.00 | > 10 | < 5.00 | < 5.00
COc1ccc2c(c1)sc1c(Nc3ccc(C)cc3)ncnc12 | < 5.00 | < 5.00 | > 10 | < 5.00 | < 5.00
COc1ccc2c(c1)sc1c(Nc3cccc(C)c3)ncnc12 | 5.21 | < 5.00 | > 10 | < 5.00 | < 5.00
COc1ccc(Nc2ncnc3c2sc2cc(OC)ccc23)cc1 | 5.15 | < 5.00 | > 10 | < 5.00 | < 5.00
COc1ccc2c(c1)sc1c(Nc3ccc(OC)c(OC)c3)ncnc12 | 6.03 | < 5.00 | > 10 | < 5.00 | 5.55
COc1cc(Nc2ncnc3c2sc2cc(OC)ccc23)cc(OC)c1 | 5.41 | < 5.00 | > 10 | < 5.00 | 5.29
COc1ccc2c(c1)sc1c(Nc3cc(OC)c(OC)c(OC)c3)ncnc12 | < 5.00 | < 5.00 | > 10 | < 5.00 | < 5.00
COc1ccc2c(c1)sc1c(Nc3ccc4c(c3)OCO4)ncnc12 | < 5.00 | < 5.00 | > 10 | < 5.00 | < 5.00
COc1ccc2c(c1)sc1c(Nc3ccc4c(c3)OCCO4)ncnc12 | 6.30 | < 5.00 | > 10 | < 5.00 | 6.17
COc1ccc2c(c1)sc1c(Nc3ccc(F)cc3)ncnc12 | < 5.00 | < 5.00 | > 10 | < 5.00 | < 5.00
COc1ccc2c(c1)sc1c(Nc3ccc(Cl)cc3)ncnc12 | < 5.00 | < 5.00 | > 10 | < 5.00 | < 5.00
COc1ccc2c(c1)sc1c(Nc3cccc(Cl)c3)ncnc12 | < 5.00 | < 5.00 | > 10 | < 5.00 | < 5.00
COc1ccc2c(c1)sc1c(Nc3ccccc3Cl)ncnc12 | 6.21 | < 5.00 | > 10 | < 5.00 | 5.51
COc1ccc2c(c1)sc1c(Nc3ccc(Cl)c(Cl)c3)ncnc12 | 5.70 | < 5.00 | > 10 | < 5.00 | 5.21
COc1ccc2c(c1)sc1c(Nc3cc(Cl)cc(Cl)c3)ncnc12 | 5.09 | < 5.00 | > 10 | < 5.00 | < 5.00
COc1ccc2c(c1)sc1c(Nc3ccc(Cl)cc3Cl)ncnc12 | 5.80 | < 5.00 | > 10 | < 5.00 | < 5.00
COc1ccc2c(c1)sc1c(Nc3ccc(F)c(Cl)c3)ncnc12 | < 5.00 | < 5.00 | > 10 | < 5.00 | < 5.00
COc1ccc2c(c1)sc1c(Nc3ccc(Cl)cc3F)ncnc12 | < 5.00 | < 5.00 | > 10 | < 5.00 | < 5.00
COc1ccc2c(c1)sc1c(Nc3ccc(F)cc3F)ncnc12 | 6.03 | 5.41 | > 10 | < 5.00 | 5.80
COc1ccc2c(c1)sc1c(Nc3ccc(Br)cc3F)ncnc12 | 6.15 | < 5.00 | > 10 | < 5.00 | 5.64
COc1ccc(Nc2ncnc3c2sc2cc(OC)ccc23)c(F)c1 | 6.15 | < 5.00 | > 10 | < 5.00 | < 5.00
COc1ccc2c(c1)sc1c(Nc3ccc(C#N)cc3)ncnc12 | 5.59 | < 5.00 | > 10 | < 5.00 | 5.17
COc1ccc2c(c1)sc1c(Nc3cccc(C(F)(F)F)c3)ncnc12 | < 5.00 | < 5.00 | > 10 | < 5.00 | < 5.00
COc1ccc2c(c1)[nH]c1c(C)nccc12 [HARMINE] |  | 5.82 | > 10 |  | 

Other lines, results leading:

pIC50 [1] | pIC50 [2] | IC50 [3] [µM] | pIC50 [4] | pIC50 [5] | SMILES
5.55 | < 5.00 | > 10 | < 5.00 | 5.70 | COc1ccc2c(c1)oc1c(Nc3ccc4c(c3)OCO4)ncnc12
< 5.00 | < 5.00 | > 10 | < 5.00 | < 5.00 | COc1ccc2c(c1)oc1c(Nc3ccc(Br)cc3)ncnc12
< 5.00 | < 5.00 | > 10 | < 5.00 | < 5.00 | COc1ccc2c(c1)oc1c(Nc3ccc(Cl)cc3)ncnc12
< 5.00 | < 5.00 | > 10 | < 5.00 | < 5.00 | COc1ccc2c(c1)oc1c(Nc3cccc(Cl)c3)ncnc12
5.49 | < 5.00 | > 10 | < 5.00 | 5.38 | COc1ccc2c(c1)oc1c(Nc3ccccc3Cl)ncnc12
< 5.00 | < 5.00 | > 10 | < 5.00 | < 5.00 | COc1ccc2c(c1)oc1c(Nc3ccc(Cl)c(Cl)c3)ncnc12
< 5.00 | < 5.00 | > 10 | < 5.00 | < 5.00 | COc1ccc2c(c1)oc1c(Nc3cc(Cl)cc(Cl)c3)ncnc12
5.51 | < 5.00 | > 10 | < 5.00 | < 5.00 | COc1ccc2c(c1)oc1c(Nc3ccc(Cl)cc3Cl)ncnc12
< 5.00 | < 5.00 | > 10 | < 5.00 | < 5.00 | COc1ccc2c(c1)oc1c(Nc3ccc(F)c(Cl)c3)ncnc12
< 5.00 | < 5.00 | > 10 | < 5.00 | < 5.00 | COc1ccc2c(c1)oc1c(Nc3ccc(Cl)cc3F)ncnc12
< 5.00 | < 5.00 | > 10 | < 5.00 | < 5.00 | COc1ccc2c(c1)oc1c(Nc3ccc(F)cc3F)ncnc12
< 5.00 | < 5.00 | > 10 | < 5.00 | < 5.00 | COc1ccc2c(c1)oc1c(Nc3ccc(Br)cc3F)ncnc12
< 5.00 | < 5.00 | > 10 | < 5.00 | < 5.00 | COc1ccc(Nc2ncnc3c2oc2cc(OC)ccc23)c(F)c1
< 5.00 | < 5.00 | > 10 | < 5.00 | < 5.00 | COc1ccc2c(c1)oc1c(Nc3ccc(C#N)cc3)ncnc12
< 5.00 | < 5.00 | > 10 | < 5.00 | < 5.00 | COc1ccc2c(c1)oc1c(Nc3cccc(C(F)(F)F)c3)ncnc12
< 5.00 | < 5.00 | > 10 | < 5.00 | < 5.00 | COc1ccc2c(c1)oc1c(Nc3ccc(N(C)C)cc3)ncnc12
< 5.00 | < 5.00 | > 10 | < 5.00 | < 5.00 | COc1ccc2c(c1)sc1c(N)ncnc12
< 5.00 | < 5.00 | > 10 | < 5.00 | < 5.00 | COc1ccc2c(c1)sc1c(Nc3ccc(Br)cc3)ncnc12
5.96 | 5.72 | > 10 | < 5.00 | 6.39 | COc1ccc2c(c1)oc1c(N)ncnc12
< 5.00 | < 5.00 | > 10 | < 5.00 | < 5.00 | COc1ccc2c(c1)oc1c(Nc3ccccc3)ncnc12
< 5.00 | < 5.00 | > 10 | < 5.00 |  | COc1ccc2c(c1)oc1c(Nc3ccc(C)cc3)ncnc12
< 5.00 | < 5.00 | > 10 | < 5.00 | < 5.00 | COc1ccc2c(c1)oc1c(Nc3cccc(C)c3)ncnc12
6.06 | < 5.00 | > 10 | < 5.00 | 5.82 | COc1ccc(Nc2ncnc3c2oc2cc(OC)ccc23)cc1
< 5.00 | < 5.00 | > 10 | < 5.00 | < 5.00 | COc1ccc2c(c1)oc1c(Nc3ccc(OC)c(OC)c3)ncnc12
< 5.00 | < 5.00 | > 10 | < 5.00 |  | COc1cc(Nc2ncnc3c2oc2cc(OC)ccc23)cc(OC)c1
< 5.00 | < 5.00 | > 10 | < 5.00 | < 5.00 | COc1ccc2c(c1)oc1c(Nc3cc(OC)c(OC)c(OC)c3)ncnc12
